These results are taken from ChEMBL document CHEMBL5608251, “Virtual Screening and Molecular Docking: Discovering Novel METTL3 Inhibitors” (ACS Med Chem Lett, 2024).

Experiment [1] addresses METTL3/METTL14 (Homo sapiens) (UniProt Q86U44+Q9HCE5). The experiment in a line: Inhibition of METTL3/METTL14 (unknown origin) using SAM as substrate at 25 uM incubated for 360 mins by luminescence based assay relative to control. In kind it is protein-complex assay.
For a further experiment, the target named is METTL3/METTL14 (Homo sapiens, UniProt Q86U44). Description: Inhibition of recombinant METTL3/METTL14 (unknown origin) by radioactivity based assay. Format: protein-complex assay.
METTL3/METTL14, sequence (Q86U44 whole entry): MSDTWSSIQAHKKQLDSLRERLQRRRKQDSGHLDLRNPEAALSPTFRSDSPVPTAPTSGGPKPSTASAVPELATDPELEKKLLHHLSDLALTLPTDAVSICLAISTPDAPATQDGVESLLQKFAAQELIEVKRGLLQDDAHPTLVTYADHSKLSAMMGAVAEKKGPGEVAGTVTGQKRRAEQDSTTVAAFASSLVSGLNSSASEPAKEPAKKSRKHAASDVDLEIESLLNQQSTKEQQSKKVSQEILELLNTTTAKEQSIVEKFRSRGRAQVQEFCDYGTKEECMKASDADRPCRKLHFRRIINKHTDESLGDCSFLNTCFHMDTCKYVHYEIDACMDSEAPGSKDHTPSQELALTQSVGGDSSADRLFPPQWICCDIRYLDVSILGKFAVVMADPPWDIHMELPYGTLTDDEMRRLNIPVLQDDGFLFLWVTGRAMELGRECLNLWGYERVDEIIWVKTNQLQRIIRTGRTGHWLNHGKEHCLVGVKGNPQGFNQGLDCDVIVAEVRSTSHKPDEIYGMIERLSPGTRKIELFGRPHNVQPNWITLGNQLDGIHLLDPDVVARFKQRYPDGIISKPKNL
METTL3/METTL14, sequence (Q9HCE5 whole entry, further chain): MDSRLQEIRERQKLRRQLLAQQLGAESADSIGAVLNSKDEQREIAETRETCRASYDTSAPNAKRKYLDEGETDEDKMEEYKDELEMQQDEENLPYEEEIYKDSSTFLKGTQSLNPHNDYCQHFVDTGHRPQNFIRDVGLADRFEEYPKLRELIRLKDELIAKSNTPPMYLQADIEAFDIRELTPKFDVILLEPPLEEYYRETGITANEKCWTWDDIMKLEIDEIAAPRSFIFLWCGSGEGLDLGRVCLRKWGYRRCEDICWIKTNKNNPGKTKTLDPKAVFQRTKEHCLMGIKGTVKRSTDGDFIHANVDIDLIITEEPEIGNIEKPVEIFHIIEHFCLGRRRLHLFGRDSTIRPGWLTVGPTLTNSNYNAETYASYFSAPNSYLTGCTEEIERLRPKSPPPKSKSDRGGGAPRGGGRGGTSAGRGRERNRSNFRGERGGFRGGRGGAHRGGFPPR
For a further experiment, the system named is NCI-H1975. The experiment in a line: Antiproliferative activity against human NCI-H1975 cells assessed as inhibition of cell growth incubated for 72 hrs by CCK-8 assay. In kind it is functional, cell-based. Particulars: NCI-H1975, 72 h. On the technique in general: Tetrazolium assays rely on reduction of a dye to a coloured formazan, in cell work by metabolically active cells.

The subject of another experiment is PC-9. Description: Antiproliferative activity against human PC-9 cells assessed as inhibition of cell growth incubated for 72 hrs by CCK-8 assay. In kind it is functional, cell-based. The settings on record: PC-9, 72 h.

Each structure is given as a SMILES string.

The term inhibition denotes the percentage by which the read-out fell short of the control. In experiment [1], `O=C(CCCn1c(SCC(=O)Nc2ccc(F)cc2)nc2c(sc3ccccc32)c1=O)NCCO` returned an inhibition of 6.31%.
`CC(=O)Nc1ccc(C)cc1NC(=O)CCC1COc2ccccc2O1` (stereo not given) showed an inhibition in experiment [1] of 38.9%.
In the case of `COc1ccc(NC(=O)CCn2ccc(=O)[nH]c2=O)cc1`, the inhibition in experiment [1] amounted to 22.4%.
Same read-out and setting: the result for `COc1ccc(-c2nc(C[S+]([O-])CC(=O)NCc3ccco3)c(C)o2)cc1` (stereo not given) reads 32.5%; that for `CCn1c(N2CCCC(C(=O)Nc3ccc4[nH]c(=O)[nH]c4c3)C2)cc(=O)n(C)c1=O` (stereo not given), 36.7%.
On the same count and under the same terms, the result for `CNC(=O)Cn1c(CO)cnc1SCC(=O)Nc1ccc(C(C)=O)cc1` reads 31.1%; that for `O=C(CCSc1nc(-c2ccco2)cc(C(F)(F)F)n1)NCc1ccco1`, 36.3%.
The IC50 is the midpoint of a concentration-inhibition curve. `Nc1ncnc2c1ncn2[C@@H]1O[C@H](C[C@@H](N)CC[C@H](N)C(=O)O)[C@@H](O)[C@H]1O` [SINEFUNGIN]: the IC50 at METTL3/METTL14 is 2.36 µM.
In the case of `O=C(CNC(=O)c1ccco1)N/N=C/c1cc(Br)cc(Br)c1OC(=O)c1cccc(F)c1`, in experiment [1], the inhibition worked out at 35.3%.
`O=C1c2ccc(Oc3cccc(Oc4ccc5c(c4)C(=O)N(c4ccc(O)cc4)C5=O)c3)cc2C(=O)N1c1ccc(O)cc1`: the IC50 with NCI-H1975 worked out at 180 µM; with PC-9 it was 216 µM. Further, the inhibition in experiment [1] amounted to 65.6%.
The compound `COc1ccc(NC(=O)Cn2cc(C(=O)c3ccc(C)cc3)c(=O)c3cc(OC)c(OC)cc32)cc1OC` showed an inhibition in experiment [1] of 24.1%.
Still for that read-out and setting: then `COc1ccc(C(=O)Nc2cccc(OCc3cc(=O)n4ccc(C)cc4c3)c2)cc1OC`, with 25.1%.
Still for that read-out and setting: then `COc1ccc(NC(=O)CCn2ccc(=O)[nH]c2=O)c(O)c1`, with 30.5%; and `CC(=O)c1ccc(NC(=O)CSc2ncc(CO)n2Cc2ccc(F)cc2)cc1`, with 3.39%; and `CCn1c(SCC(=O)Nc2ccc(C)c(F)c2)nc2c3cc(OC)ccc3n(C)c2c1=O`, with 32.1%.
Take `CCOC(=O)CC(=O)CSc1nc2c(sc(=S)n2-c2ccc(C(=O)OCC)cc2)c2nc3ccccc3n12`: the IC50 with NCI-H1975 is 197 µM; with PC-9 it was 213 µM. This compound showed an inhibition in experiment [1] of 46.2%.
